Data set [1] is described as follows: Toxicity in BALB/c mouse xenografted with human HT-29 cells assessed as lung damage at 40 mg/kg, ip measured after 21 days by H and E staining based assay. Type of data set: organism-based. Particulars: in vivo, 504 h, time 21 day. In general terms: Xenograft models place foreign cells or tissue in a host animal.
Data set [2] is described as follows: Toxicity in BALB/c mouse xenografted with human HT-29 cells assessed as kidney damage at 40 mg/kg, ip measured after 21 days by H and E staining based assay. The following applies: in vivo, 504 h, time 21 day. Type of data set: organism-based.
For data set [3], the system named is HT-29. Kind of data set: cells. The following applies: Homo sapiens, HT-29, 72 h.
Description: Antiproliferative activity against human HT-29 cells incubated for 72 hrs by MTT assay
Data set [4] concerns HT-29. As to the kind of experiment: Antitumor activity against human HT-29 cells xenografted in BALB/c mouse assessed as tumor growth inhibition at 40 mg/kg, ip administered daily for 3 weeks by caliper method. Type of data set: functional. Particulars: HT-29, 504 h, read-out: TGI.
Data set [5] in a line: Toxicity in BALB/c mouse xenografted with human HT-29 cells assessed as liver damage at 40 mg/kg, ip measured after 21 days by H and E staining based assay. Particulars: in vivo, 504 h, time 21 day. Type of data set: organism-based.
Another data set deals with HCT-15. As to the kind of experiment: Antiproliferative activity against human HCT-15 cells incubated for 72 hrs by MTT assay. The class given is functional, cell-based. The following applies: HCT-15, 72 h.
Data set [6] is described as follows: Toxicity in BALB/c mouse xenografted with human HT-29 cells assessed as heart damage at 40 mg/kg, ip measured after 21 days by H and E staining based assay. The class given is organism-based. The following applies: in vivo, 504 h, time 21 day.
Data set [7] in a line: Toxicity in BALB/c mouse xenografted with human HT-29 cells assessed as body weight loss at 40 mg/kg, ip measured after 12 days. The class given is organism-based. Particulars: in vivo, 288 h, time 12 day.
The next data set deals with HCT-8. Kind of data set: Antiproliferative activity against human HCT-8 cells incubated for 72 hrs by MTT assay. Particulars: HCT-8, 72 h. The class given is functional, cell-based. (In general: Tetrazolium assays rely on reduction of a dye to a coloured formazan, in cell work by metabolically active cells.)
For the next data set, the system named is HCT-116. As to the kind of experiment: cells. Particulars: Homo sapiens, HCT-116, 72 h.
For data set [8], the system named is HT-29. Kind of data set: Downregulation of c-Myc expression in human […] cells incubated for 24 hrs by Western blot analysis. The following applies: dose 2.5-10 µM. The class given is functional, cell-based. A general note: In western blotting, separated proteins are transferred to a membrane and probed.
The species named for the next data set is Homo sapiens. As to the kind of experiment: Inhibition of human Myc (353 to 439 residues)/Max(S) (151 residues) expressed in Escherichia coli BL21(DE3) binding to biotinylated double-stranded DNA oligonucleotide 5'-CACCCGGTCACTGGCCTACAC-3' (unknown origin) preincubated for 90 mins followed by oligonucleotide addition for 25 mins by EMSA. The following applies: time 115.0 min.

The subject of data set [9] is HT-29. Kind of data set: Inhibition of colony formation in human HT-29 cells measured after 14 days by crystal violet staining based assay. The class given is functional, cell-based. The following applies: dose 0.25-2 µM, time 14.0 day.
A further data set has as its target c-Myc/c-Max (Homo sapiens, UniProt P01106+P61244). As to the kind of experiment: Inhibition of c-Myc to Max protein dimerization (unknown origin) by electrophoretic mobility shift assay.
A short description of data set [10]: Inhibition of c-Myc/Max binding to DNA (unknown origin) by fluorescence polarization assay. Set-up: species or system Homo sapiens.

Chain of c-Myc/c-Max (P01106 whole entry): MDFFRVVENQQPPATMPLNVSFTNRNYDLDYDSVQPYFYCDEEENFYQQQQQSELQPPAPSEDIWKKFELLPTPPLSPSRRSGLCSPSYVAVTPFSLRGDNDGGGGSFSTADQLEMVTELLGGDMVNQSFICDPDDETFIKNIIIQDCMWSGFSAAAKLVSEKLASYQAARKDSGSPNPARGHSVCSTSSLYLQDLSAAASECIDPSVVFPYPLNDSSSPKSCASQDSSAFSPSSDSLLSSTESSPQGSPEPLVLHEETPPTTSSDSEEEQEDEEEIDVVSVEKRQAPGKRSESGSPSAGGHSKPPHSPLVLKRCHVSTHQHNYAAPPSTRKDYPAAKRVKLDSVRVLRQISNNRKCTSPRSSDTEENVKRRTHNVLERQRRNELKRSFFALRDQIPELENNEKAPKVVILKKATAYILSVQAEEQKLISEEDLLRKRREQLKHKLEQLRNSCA
Chain of c-Myc/c-Max (P61244 whole entry): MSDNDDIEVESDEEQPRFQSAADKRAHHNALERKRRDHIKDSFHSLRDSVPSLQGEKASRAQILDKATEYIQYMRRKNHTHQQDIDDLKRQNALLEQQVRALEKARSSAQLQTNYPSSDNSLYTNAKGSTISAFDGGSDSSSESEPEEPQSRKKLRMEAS
Description for HCT-116: Antiproliferative activity against human HCT-116 cells incubated for 72 hrs by MTT assay

By IC50 is commonly meant the concentration at which inhibition is half-maximal. Take `O=c1[nH]cc(F)c(=O)[nH]1` [FLUOROURACIL]: the Activity entry in [1], in [2], in data set [5], in [6] and in data set [7] was “Toxic” in each case. The half-inhibitory concentration (IC50) in the data set with HT-29 [3] was 9.19 µM; in the data set on HCT-15, 8.23 µM; in the data set on HCT-8, greater than 20 µM; in the data set with HCT-116 it was 6.5 µM. In addition, the inhibition in vivo at 40 mg/kg in the data set on HT-29 [4] worked out at 50.2%.
Regarding `COc1ccc(CCNCc2c(OC)cc(Oc3ccc(Nc4ccccc4)cc3)cc2OC)cc1`, the IC50 is 1.36 µM with HT-29 [3], 3.15 µM in the data set on HCT-15, 4.81 µM in the data set with HCT-8 and 1.95 µM with HCT-116. Besides, the inhibition in vivo at 40 mg/kg with HT-29 [4] worked out at 55.8%. Moreover, the Activity result in the data set with HT-29 [8] was “Dose-Dependent Effect”. Also, the inhibition result in the data set filed under Homo sapiens and with HT-29 [9] was “Dose-Dependent Effect” in each case.
With `O=C(O)c1ccc(Nc2ccc([N+](=O)[O-])c3nonc23)cc1`, the IC50 on c-Myc/c-Max was 33 µM.
As for `C=C(OCC)c1cnn(-c2ccccc2)c1NC(=O)c1cc2nc(-c3ccco3)cc(C(F)(F)Cl)n2n1`, the IC50 in [10] was found to be 40 µM.

Values taken from ChEMBL document CHEMBL5352446, “Synthesis and biological evaluation of a novel c-Myc inhibitor against colorectal cancer via blocking c-Myc/Max heterodimerization and disturbing its DNA binding” (Eur J Med Chem, 2022).
